Results from ChEMBL document CHEMBL2346547, “Bifunctional inhibition of human immunodeficiency virus type 1 reverse transcriptase: mechanism and proof-of-concept as a novel therapeutic design strategy” (J Med Chem, 2013).

Columns and labels:
[1] = target: T1, Human immunodeficiency virus type 1 reverse transcriptase (Human immunodeficiency virus 1, UniProt Q72547); assay: Competitive inhibition of C-Terminal histidine-tagged wild type heterodimeric HIV-1 reverse transcriptase p66/p51 assessed as inhibition of dTTP incorporation after 15 mins by PAGE
[2] = target: T1, Human immunodeficiency virus type 1 reverse transcriptase; assay: Competitive inhibition of C-Terminal histidine-tagged wild type heterodimeric HIV-1 reverse transcriptase p66/p51 assessed as inhibition of dGTP incorporation after 15 mins by PAGE

SMILES | IC50 [1] | IC50 [2]
C#CCOCCOCCOCCOCCOCC#Cc1cc(C)c(Oc2ccnc(Nc3ccc(C#N)cc3)n2)c(C)c1 | 122 nM | 64 nM
Cc1cc(C#CCOCCOCCOCCOCCOCC#Cc2cn([C@H]3C=C[C@@H](COP(=O)(O)OP(=O)(O)OP(=O)(O)O)O3)c(=O)[nH]c2=O)cc(C)c1Oc1ccnc(Nc2ccc(C#N)cc2)n1 | 3 nM | 42 nM
Cc1cn([C@H]2C=C[C@@H](COP(=O)(O)OP(=O)(O)OP(=O)(O)O)O2)c(=O)[nH]c1=O [STAVUDINE TRIPHOSPHATE] | 13000 nM | 
Cc1cc(C#N)cc(C)c1Oc1ccnc(Nc2ccc(C#N)cc2)n1 | 13 nM | 9 nM
